Measurements published in publication PMC3391414 (Journal of Agricultural and Food Chemistry, 2011).
Entries after “also recorded” stand apart in the source; their conditions may differ.

Columns and labels:
UGT1A1 = target: T1, UGT1A1 (Homo sapiens, UniProt P22309); assay: Glucuronidation by recombinant human UGT1A1
T1 sequence (P22309 26-533): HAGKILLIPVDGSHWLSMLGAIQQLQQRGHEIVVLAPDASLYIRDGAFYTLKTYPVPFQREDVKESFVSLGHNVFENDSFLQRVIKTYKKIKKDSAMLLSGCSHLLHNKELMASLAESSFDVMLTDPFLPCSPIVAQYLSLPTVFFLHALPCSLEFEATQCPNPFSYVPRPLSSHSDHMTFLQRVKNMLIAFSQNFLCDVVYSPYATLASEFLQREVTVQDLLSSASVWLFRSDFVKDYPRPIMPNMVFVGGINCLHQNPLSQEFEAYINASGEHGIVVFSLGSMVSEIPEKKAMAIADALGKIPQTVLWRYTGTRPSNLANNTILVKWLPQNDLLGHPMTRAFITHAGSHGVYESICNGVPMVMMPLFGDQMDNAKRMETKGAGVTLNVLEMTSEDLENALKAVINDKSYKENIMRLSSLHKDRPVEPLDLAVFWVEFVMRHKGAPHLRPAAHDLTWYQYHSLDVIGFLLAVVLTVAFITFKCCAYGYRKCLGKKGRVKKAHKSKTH

UGT1A3 = target: T2, UGT1A3 (Homo sapiens, UniProt P35503); assay: Glucuronidation by recombinant human UGT1A3
T2 sequence (P35503 29-534): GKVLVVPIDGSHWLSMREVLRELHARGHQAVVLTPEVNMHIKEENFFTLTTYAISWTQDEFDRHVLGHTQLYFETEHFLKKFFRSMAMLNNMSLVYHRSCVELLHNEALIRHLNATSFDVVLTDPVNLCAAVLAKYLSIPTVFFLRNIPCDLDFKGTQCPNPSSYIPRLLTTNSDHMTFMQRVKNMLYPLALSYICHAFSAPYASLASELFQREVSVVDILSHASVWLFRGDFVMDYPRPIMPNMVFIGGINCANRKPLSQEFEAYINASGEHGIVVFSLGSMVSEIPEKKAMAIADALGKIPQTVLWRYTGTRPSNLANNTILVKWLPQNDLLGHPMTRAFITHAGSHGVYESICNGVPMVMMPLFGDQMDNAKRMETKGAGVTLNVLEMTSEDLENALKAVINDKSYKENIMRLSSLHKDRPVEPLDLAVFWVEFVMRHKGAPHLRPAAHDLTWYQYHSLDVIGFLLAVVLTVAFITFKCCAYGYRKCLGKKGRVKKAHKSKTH

UGT1A9 = target: T3, UGT1A9 (Homo sapiens, UniProt O60656); assay: Glucuronidation by recombinant human UGT1A9
T3 sequence (O60656 26-530): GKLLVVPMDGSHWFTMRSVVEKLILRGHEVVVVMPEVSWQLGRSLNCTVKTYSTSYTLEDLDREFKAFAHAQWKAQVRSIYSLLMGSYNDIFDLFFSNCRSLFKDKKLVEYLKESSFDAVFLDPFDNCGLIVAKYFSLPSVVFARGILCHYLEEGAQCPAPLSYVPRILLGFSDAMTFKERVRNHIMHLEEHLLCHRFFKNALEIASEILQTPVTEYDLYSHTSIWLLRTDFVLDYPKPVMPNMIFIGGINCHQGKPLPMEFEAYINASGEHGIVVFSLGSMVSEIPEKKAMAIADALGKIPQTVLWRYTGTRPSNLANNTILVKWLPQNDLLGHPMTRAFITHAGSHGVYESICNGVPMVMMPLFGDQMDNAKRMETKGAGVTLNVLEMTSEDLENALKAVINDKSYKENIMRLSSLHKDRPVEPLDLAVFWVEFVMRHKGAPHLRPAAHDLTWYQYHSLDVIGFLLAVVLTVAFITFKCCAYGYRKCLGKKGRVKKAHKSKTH

[1] = tested on: UGT 1A1, 1A3, 1A6, 1A7, 1A8, 1A9, 1A10 and 2B7; assay: Glucuronidation by the panel of 8 recombinant human UGT isoforms; settings: substrate 10 μM
UGT1A6 = target: T4, UGT1A6 (Homo sapiens, UniProt P19224); assay: Glucuronidation by recombinant human UGT1A6; settings: UGT1A6, substrate 10 μM
T4 sequence (P19224 27-532): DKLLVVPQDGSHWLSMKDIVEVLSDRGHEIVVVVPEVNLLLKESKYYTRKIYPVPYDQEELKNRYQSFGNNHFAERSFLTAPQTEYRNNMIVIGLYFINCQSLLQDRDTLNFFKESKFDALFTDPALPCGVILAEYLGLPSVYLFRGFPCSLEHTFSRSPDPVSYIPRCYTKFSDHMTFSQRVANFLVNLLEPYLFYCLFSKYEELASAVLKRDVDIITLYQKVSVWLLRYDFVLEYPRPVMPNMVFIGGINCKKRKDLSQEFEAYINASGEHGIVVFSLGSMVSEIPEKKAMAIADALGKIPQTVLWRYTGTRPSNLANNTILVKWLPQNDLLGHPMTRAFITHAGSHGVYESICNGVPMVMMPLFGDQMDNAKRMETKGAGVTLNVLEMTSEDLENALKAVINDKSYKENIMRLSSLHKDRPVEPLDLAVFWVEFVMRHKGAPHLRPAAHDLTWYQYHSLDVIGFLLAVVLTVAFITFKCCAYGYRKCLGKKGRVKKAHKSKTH

UGT1A8 = target: T5, UGT1A8 (Homo sapiens, UniProt Q9HAW9); assay: Glucuronidation by recombinant human UGT1A8; settings: UGT1A8, substrate 35 μM
T5 sequence (Q9HAW9 26-530): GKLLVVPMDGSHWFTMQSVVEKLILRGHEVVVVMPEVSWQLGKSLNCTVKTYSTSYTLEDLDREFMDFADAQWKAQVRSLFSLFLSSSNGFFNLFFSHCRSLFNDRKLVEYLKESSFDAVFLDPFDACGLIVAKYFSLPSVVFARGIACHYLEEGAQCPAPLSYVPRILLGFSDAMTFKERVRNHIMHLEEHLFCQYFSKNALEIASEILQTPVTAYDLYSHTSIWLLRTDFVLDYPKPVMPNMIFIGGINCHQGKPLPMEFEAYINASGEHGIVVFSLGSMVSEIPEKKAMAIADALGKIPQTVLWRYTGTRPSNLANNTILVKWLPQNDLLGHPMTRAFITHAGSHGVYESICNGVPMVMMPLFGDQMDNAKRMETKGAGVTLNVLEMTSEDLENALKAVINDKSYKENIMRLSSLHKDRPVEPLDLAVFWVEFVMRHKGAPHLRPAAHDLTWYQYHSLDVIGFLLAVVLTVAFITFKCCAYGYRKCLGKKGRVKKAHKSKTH

SMILES | Degree of regiospecificity (major glucuronide in bracket) (UGT1A1; UGT1A1, substrate 2.5 μM) | Degree of regiospecificity (major glucuronide in bracket) (UGT1A1; UGT1A1, substrate 10 μM) | Degree of regiospecificity (major glucuronide in bracket) (UGT1A3; UGT1A3, substrate 2.5 μM) | Degree of regiospecificity (major glucuronide in bracket) (UGT1A3; UGT1A3, substrate 10 μM) | Degree of regiospecificity (major glucuronide in bracket) (UGT1A9; UGT1A9, substrate 2.5 μM) | Degree of regiospecificity (major glucuronide in bracket) (UGT1A9; UGT1A9, substrate 10 μM) | Glucuronidation and regiospecificity across the 8 UGT isoforms [1] | other results
O=c1c(O)c(-c2ccc(O)cc2)oc2ccccc12 [4'HFnol, 3,4’-dihydroxyflavone] | No (3-O, 4’-O) | No (3-O, 4’-O) | Dominant (3-O) | No (3-O, 4’-O) | Dominant (3-O) | Dominant (3-O) | most isoforms showed dominant regiospecificity by glucuronidating almost only the 3-O position | Degree of regiospecificity (major glucuronide in bracket) (UGT1A1; UGT1A1, substrate 2.5 μM, listed as 4’HFnol): did not show any regiospecific preference; Degree of regiospecificity (major glucuronide in bracket) (UGT1A1; UGT1A1, substrate 10 μM, listed as 4’HFnol): no regiospecificity; also recorded: did not show any regiospecific preference; Degree of regiospecificity (major glucuronide in bracket) (UGT1A3; UGT1A3, substrate 10 μM, listed as 4’HFnol): no regiospecificity
O=c1cc(-c2ccc(O)cc2)oc2cccc(O)c12 [5,4'DHF, 5,4’-dihydroxyflavone] | Dominant (4’-O) | Dominant (4’-O) | Dominant (4’-O) | Moderate (4’-O) | Dominant (4’-O) | Dominant (4’-O) | 4’-O was the preferred position of glucuronidation in all cases | Degree of regiospecificity (major glucuronide in bracket) (UGT1A1; UGT1A1, substrate 2.5 μM, listed as 5,4’DHF): dominant regiospecificity; Degree of regiospecificity (major glucuronide in bracket) (UGT1A1; UGT1A1, substrate 10 μM, listed as 5,4’DHF): dominant regiospecificity; Degree of regiospecificity (major glucuronide in bracket) (UGT1A3; UGT1A3, substrate 10 μM, listed as 5,4’DHF): moderate regiospecificity for 4’-O position; Degree of regiospecificity (major glucuronide in bracket) (UGT1A9; UGT1A9, substrate 10 μM, listed as 5,4’DHF): dominant regiospecificity
O=c1c(O)c(-c2ccccc2)oc2cc(O)cc(O)c12 [5,7DHFnol, 3,5,7-trihydroxyflavone] | Weak (7-O) | weakly preferred the glucuronidation of 7-O over 3-O position; also recorded: Weak (7-O) | Dominant (7-O) | dominantly regiospecific for 7-O; also recorded: Dominant (7-O) | Weak (3-O) | did not show any regiospecific preference for any position; also recorded: No (3-O, 7-O) |  | Degree of regiospecificity (major glucuronide in bracket) (UGT1A9; UGT1A9, substrate 10 μM, listed as 5,7THFnol): 3-O and 7-O were glucuronidated at comparable rates
O=c1cc(-c2ccc(O)cc2)oc2cc(O)ccc12 [7,4'DHF, 7,4’-dihydroxyflavone] | Weak (7-O) | Moderate (7-O) | Dominant (7-O) | Dominant (7-O) | Moderate (7-O) | Moderate (7-O) | except UGT1A6, all metabolizing isoforms glucuronidated both hydroxyl groups at C-7 and C-4’ positions | Degree of regiospecificity (major glucuronide in bracket) (UGT1A1; UGT1A1, substrate 2.5 μM, listed as 7,4’DHF): weak; Degree of regiospecificity (major glucuronide in bracket) (UGT1A1; UGT1A1, substrate 10 μM, listed as 7,4’DHF): moderate regiospecificity for glucuronidation of 7-O position; Degree of regiospecificity (major glucuronide in bracket) (UGT1A3; UGT1A3, substrate 10 μM, listed as 7,4’DHF): dominant regiospecificity for glucuronidation of 7-O position; Degree of regiospecificity (major glucuronide in bracket) (UGT1A9; UGT1A9, substrate 10 μM, listed as 7,4’DHF): moderate regiospecificity for glucuronidation of 7-O position
O=c1c(O)c(-c2ccccc2)oc2cc(O)ccc12 [7HFnol, 3,7-dihydroxyflavone] | weak regiospecificity for 7-O position; also recorded: weakly preferred the glucuronidation of 7-O position | no preference; also recorded: did not show any regiospecific preference; also recorded: no regiospecificity; also recorded: No (3-O,7-O) | Moderate (7-O) | dominantly regiospecific by glucuronidating hydroxyl group only at C-7 position; also recorded: Dominant (7-O) | moderate regiospecificity for 3-O position | moderate regiospecificity for 3-O position |  | Degree of regiospecificity (3-O vs 7-O) (UGT1A1; UGT1A1, substrate 35 μM): no regiospecificity; Degree of regiospecificity (3-O vs 7-O) (UGT1A9; UGT1A9, substrate 35 μM): no regiospecificity; Hydroxyl positions glucuronidated (UGT1A6): no position was glucuronidated; Degree of regiospecificity (3-O vs 7-O) (UGT1A8): moderate regiospecificity for 3-O position
O=c1c(O)c(-c2ccccc2)oc2ccccc12 [Fnol, 3-hydroxyflavone] |  |  |  |  |  |  | could be metabolized by any of the 8 UGT isoforms tested | 
